Measurements published in ChEMBL document CHEMBL3525932, “Comparison of metabolism of sesamin and episesamin by drug-metabolizing enzymes in human liver” (Drug Metab Dispos, 2012).

Experiments:
[1] = biological target: T1, Cytochrome P450 2C19 (Homo sapiens, UniProt P33261); assay: Activity of recombinant human CYP2C19 expressed in Saccharomyces cerevisiae AH22 cells assessed as enzyme-mediated compound formation treated with sesamin at 2 to 20 uM after 15 mins by HPLC analysis in presence of NADPH; assay type: ADME, cell-based; conditions: ah22, 0.25 h
[2] = biological target: T1, Cytochrome P450 2C19; assay: Activity of recombinant human CYP2C19 expressed in Saccharomyces cerevisiae AH22 cells assessed as enzyme-mediated compound formation treated with episesamin at 2 to 75 uM after 15 mins by HPLC analysis in presence of NADPH; assay type: ADME, cell-based; conditions: ah22, 0.25 h
[3] = biological target: T2, Cytochrome P450 2C9 (Homo sapiens, UniProt P11712); assay: Activity of recombinant human CYP2C9 expressed in Saccharomyces cerevisiae AH22 cells assessed as enzyme-mediated compound formation treated with (S)-episesamin monocatechol at 1 to 30 uM after 15 mins by HPLC analysis in presence of NADPH; assay type: ADME, cell-based; conditions: ah22, 0.25 h
[4] = biological target: T2, Cytochrome P450 2C9; assay: Activity of recombinant human CYP2C9 expressed in Saccharomyces cerevisiae AH22 cells assessed as enzyme-mediated compound formation treated with (R)-episesamin monocatechol at 1 to 30 uM after 15 mins by HPLC analysis in presence of NADPH; assay type: ADME, cell-based; conditions: ah22, 0.25 h
[5] = biological target: T3, Cytochrome P450 1A2 (Homo sapiens, UniProt P05177); assay: Activity of recombinant human CYP1A2 expressed in Saccharomyces cerevisiae AH22 cells assessed as enzyme-mediated compound formation treated with (R)-episesamin monocatechol at 1 to 30 uM after 15 mins by HPLC analysis in presence of NADPH; assay type: ADME, cell-based; conditions: ah22, 0.25 h
T3 sequence (P05177 whole entry): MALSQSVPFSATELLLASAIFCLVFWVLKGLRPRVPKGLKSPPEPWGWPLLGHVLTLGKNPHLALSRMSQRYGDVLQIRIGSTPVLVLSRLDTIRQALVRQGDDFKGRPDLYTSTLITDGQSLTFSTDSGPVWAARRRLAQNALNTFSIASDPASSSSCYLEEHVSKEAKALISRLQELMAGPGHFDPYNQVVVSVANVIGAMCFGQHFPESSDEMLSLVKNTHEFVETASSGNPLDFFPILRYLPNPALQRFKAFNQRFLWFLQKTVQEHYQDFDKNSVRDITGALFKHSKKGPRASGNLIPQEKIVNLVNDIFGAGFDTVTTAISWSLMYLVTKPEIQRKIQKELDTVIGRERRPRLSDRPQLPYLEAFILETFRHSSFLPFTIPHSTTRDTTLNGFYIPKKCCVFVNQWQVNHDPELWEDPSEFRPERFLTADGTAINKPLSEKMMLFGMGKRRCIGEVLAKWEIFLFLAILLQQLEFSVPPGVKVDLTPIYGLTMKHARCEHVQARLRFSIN

[6] = biological target: T3, Cytochrome P450 1A2; assay: Activity of recombinant human CYP1A2 expressed in Saccharomyces cerevisiae AH22 cells assessed as enzyme-mediated compound formation treated with (S)-episesamin monocatechol at 1 to 30 uM after 15 mins by HPLC analysis in presence of NADPH; assay type: ADME, cell-based; conditions: ah22, 0.25 h
[7] = test system: Liver microsome; assay: Drug level in human liver microsomes treated with episesamin at 5 uM after 30 mins by HPLC analysis in presence of NADPH; assay type: ADME; conditions: 0.5 h
[8] = biological target: T1, Cytochrome P450 2C19; assay: Activity of recombinant human CYP2C19 expressed in Saccharomyces cerevisiae AH22 cells assessed as enzyme-mediated episesamin dicatechol formation after 15 mins by HPLC analysis in presence of NADPH; assay type: ADME, cell-based; conditions: ah22, 0.25 h
[9] = biological target: T2, Cytochrome P450 2C9; assay: Activity of recombinant human CYP2C9 expressed in Saccharomyces cerevisiae AH22 cells assessed as enzyme-mediated episesamin dicatechol formation after 15 mins by HPLC analysis in presence of NADPH; assay type: ADME, cell-based; conditions: ah22, 0.25 h
[10] = biological target: T3, Cytochrome P450 1A2; assay: Activity of recombinant human CYP1A2 expressed in Saccharomyces cerevisiae AH22 cells assessed as enzyme-mediated episesamin dicatechol formation after 15 mins by HPLC analysis in presence of NADPH; assay type: ADME, cell-based; conditions: ah22, 0.25 h
[11] = biological target: T4, UDP-glucuronosyltransferase 2B7 (Homo sapiens, UniProt P16662); assay: Activity of recombinant human UGT2B7 expressed in baculovirus infected insect cells assessed as enzyme-mediated glucuronidation at 1 to 30 uM after 10 to 30 mins by HPLC analysis in presence of UDP-GlcUA; assay type: ADME
T4 sequence (P16662 whole entry): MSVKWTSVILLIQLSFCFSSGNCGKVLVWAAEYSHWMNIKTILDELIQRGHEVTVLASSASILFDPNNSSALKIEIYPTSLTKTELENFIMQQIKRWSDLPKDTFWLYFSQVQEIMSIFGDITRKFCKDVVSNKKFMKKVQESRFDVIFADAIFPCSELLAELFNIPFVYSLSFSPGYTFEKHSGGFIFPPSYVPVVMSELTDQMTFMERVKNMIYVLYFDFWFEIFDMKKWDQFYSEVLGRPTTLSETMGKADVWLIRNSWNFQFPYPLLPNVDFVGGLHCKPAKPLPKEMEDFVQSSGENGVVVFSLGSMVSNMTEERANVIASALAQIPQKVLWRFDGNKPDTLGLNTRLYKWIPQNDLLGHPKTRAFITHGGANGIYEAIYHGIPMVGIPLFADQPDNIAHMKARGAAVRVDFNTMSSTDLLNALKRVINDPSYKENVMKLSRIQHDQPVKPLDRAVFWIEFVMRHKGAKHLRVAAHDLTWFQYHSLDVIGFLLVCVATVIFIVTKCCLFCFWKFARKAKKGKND

[12] = test system: Liver microsome; assay: Drug level in human liver microsomes treated with episesamin at 2 to 75 uM after 15 mins by HPLC analysis in presence of NADPH; assay type: ADME; conditions: 0.25 h
[13] = test system: CYP450; assay: Drug metabolism in human liver microsomes assessed as CYP450-mediated catecholization after 10 to 30 mins by HPLC analysis in presence of NADPH; assay type: ADME
[14] = test system: UGT; assay: Drug metabolism in human liver microsomes assessed as UGT-mediated glucuronidation after 10 to 30 mins by HPLC analysis in presence of UDP-GlcUA; assay type: ADME
[15] = Drug metabolism in human liver microsomes assessed as UGT-mediated glucuronidation per mg of protein after 10 to 30 mins by HPLC analysis in presence of UDP-GlcUA; assay type: ADME
[16] = Drug metabolism in human liver microsomes assessed as CYP450-mediated catecholization per mg of protein after 10 to 30 mins by HPLC analysis in presence of NADPH; assay type: ADME
[17] = test system: CYP450; assay: Drug metabolism in Sprague-Dawley rat liver microsomes assessed as CYP450-mediated catecholization after 10 to 30 mins by HPLC analysis in presence of NADPH; assay type: ADME
[18] = Drug metabolism in Sprague-Dawley rat liver microsomes assessed as CYP450-mediated catecholization per mg of protein after 10 to 30 mins by HPLC analysis in presence of NADPH; assay type: ADME
[19] = Drug metabolism in Sprague-Dawley rat liver microsomes assessed as UGT-mediated glucuronidation per mg of protein after 10 to 30 mins by HPLC analysis in presence of UDP-GlcUA; assay type: ADME
[20] = test system: UGT; assay: Drug metabolism in Sprague-Dawley rat liver microsomes assessed as UGT-mediated glucuronidation after 10 to 30 mins by HPLC analysis in presence of UDP-GlcUA; assay type: ADME
[21] = biological target: T3, Cytochrome P450 1A2; assay: Activity of recombinant human CYP1A2 expressed in Saccharomyces cerevisiae AH22 cells assessed as enzyme-mediated compound formation treated with episesamin at 2 to 75 uM after 15 mins by HPLC analysis in presence of NADPH; assay type: ADME, cell-based; conditions: ah22, 0.25 h
[22] = biological target: T2, Cytochrome P450 2C9; assay: Activity of recombinant human CYP2C9 expressed in Saccharomyces cerevisiae AH22 cells assessed as enzyme-mediated compound formation treated with episesamin at 2 to 75 uM after 15 mins by HPLC analysis in presence of NADPH; assay type: ADME, cell-based; conditions: ah22, 0.25 h

T1 sequence (P33261 whole entry): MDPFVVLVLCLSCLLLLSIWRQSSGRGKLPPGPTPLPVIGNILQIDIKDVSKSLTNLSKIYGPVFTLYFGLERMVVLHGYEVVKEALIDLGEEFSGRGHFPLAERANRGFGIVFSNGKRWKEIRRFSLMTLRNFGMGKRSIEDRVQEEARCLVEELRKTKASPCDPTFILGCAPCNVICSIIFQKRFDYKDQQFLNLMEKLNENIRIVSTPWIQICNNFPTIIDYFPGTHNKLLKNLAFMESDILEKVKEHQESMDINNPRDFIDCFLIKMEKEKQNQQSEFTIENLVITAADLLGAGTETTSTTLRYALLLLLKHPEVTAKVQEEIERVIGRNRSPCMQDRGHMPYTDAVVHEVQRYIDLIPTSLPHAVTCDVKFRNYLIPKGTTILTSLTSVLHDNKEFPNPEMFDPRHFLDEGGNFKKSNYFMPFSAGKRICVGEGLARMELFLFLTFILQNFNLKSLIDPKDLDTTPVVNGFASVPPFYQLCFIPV
T2 sequence (P11712 whole entry): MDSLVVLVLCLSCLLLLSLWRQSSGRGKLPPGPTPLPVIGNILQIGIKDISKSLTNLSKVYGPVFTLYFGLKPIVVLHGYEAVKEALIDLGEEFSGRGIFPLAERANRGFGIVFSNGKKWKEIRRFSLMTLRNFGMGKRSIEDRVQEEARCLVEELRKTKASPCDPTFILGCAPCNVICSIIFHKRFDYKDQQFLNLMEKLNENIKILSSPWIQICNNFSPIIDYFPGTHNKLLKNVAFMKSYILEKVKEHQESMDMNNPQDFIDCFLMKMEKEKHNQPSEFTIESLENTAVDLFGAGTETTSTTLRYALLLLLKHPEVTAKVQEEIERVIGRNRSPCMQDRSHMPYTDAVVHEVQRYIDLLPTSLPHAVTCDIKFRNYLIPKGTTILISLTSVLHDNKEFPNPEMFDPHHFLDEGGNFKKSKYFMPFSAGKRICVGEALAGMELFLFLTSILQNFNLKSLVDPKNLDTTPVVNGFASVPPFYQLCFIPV

Drug metabolism [2]	Drug metabolism [7]	Drug metabolism [8] [nmol/min]	Drug metabolism [9] [nmol/min]	Drug metabolism [10] [nmol/min]	Drug metabolism [11]	Drug metabolism [12]	Km [13] [µM]	Km [14] [µM]	Vmax [15] [nmol/min/mg]	Vmax [16] [nmol/min/mg]	Km [17] [µM]	Vmax [19] [nmol/min/mg]	Km [20] [µM]	SMILES	also measured
														Oc1ccc([C@H]2OC[C@H]3[C@@H]2CO[C@@H]3c2ccc(O)c(O)c2)cc1O	Drug metabolism [1]: metabolite_detected
metabolite_detected														Oc1ccc([C@H]2OC[C@H]3[C@@H]2CO[C@H]3c2ccc(O)c(O)c2)cc1O	Drug metabolism [3]: metabolite_detected; Drug metabolism [4]: metabolite_detected; Drug metabolism [5]: metabolite_detected; Drug metabolism [6]: metabolite_detected
metabolite_detected	metabolite_detected	9.4	0.19	0.38	metabolite_detected	metabolite_detected	4.1	9.9	0.55	0.28	2.9	4.4	16.8	Oc1ccc([C@H]2OC[C@H]3[C@@H]2CO[C@H]3c2ccc3c(c2)OCO3)cc1O	Vmax [18]: 1.9 nmol/min/mg
metabolite_detected	metabolite_detected	9.4	0.19	0.38	metabolite_detected	metabolite_detected	1.8	8.6	0.68	0.15	8.7	0.55	9.9	Oc1ccc([C@@H]2OC[C@H]3[C@@H]2CO[C@@H]3c2ccc3c(c2)OCO3)cc1O	Drug metabolism [21]: metabolite_detected; Drug metabolism [22]: metabolite_detected
